US20260008817A1, “CYCLIC PEPTIDE OR SALT THEREOF, AND USES THEREOF” (FUJIFILM Corporation, priority 2023, published 2026)
No end group written: not given here.

Legend:
Format in all cases: cell-based
Settings in all cases: viable cells at the addition concentration (0.001 to 10 nmol/L) with largest number; 2 nights
[1] = system: BaF3 cells stably expressing FGFR (avian); experiment: BaF3 cell proliferation-promoting effect, avian FGFR
Description: (§1) The FGFR phosphorylation ability of the cyclic peptide complex was evaluated using the BaF3 cell proliferation-promoting effect in which FGFR was stably expressed.
(§2) BaF3 cells stably expressing FGFR were established by introducing a vector (human: Gene Copoeia, EX-Y2820-M67, bovine: sequence of Accession No. A4IFL5 was introduced into pCDNA3.1/Hygro(+) Mammalian Expression Vector (Thermo, V87020), porcine: sequence of Accession No. A0A8D1E4H1 was introduced into pCDNA3.1/Hygro(+) Mammalian Expression Vector (Thermo, V87020), and avian: sequence of Accession No. P21804 was introduced into pCDNA3.1/Hygro(+) Mammalian Expression Vector (Thermo, V87020)) into which FGFR gene had been incorporated, into BaF3 cells using Nucleofector and performing drug selection of cells into which the FGFR gene had been introduced using hygromycin.
(§3) The evaluation of the proliferation-promoting effect of BaF3 cells in which FGFR is stably expressed was performed by the following method. […] The number of viable cells was calculated from the imaging data, and the cell proliferation-promoting effect was evaluated according to the following evaluation criteria. […]

[2] = system: BaF3 cells stably expressing FGFR (bovine); experiment: BaF3 cell proliferation-promoting effect, bovine FGFR
Description: as §1, §2, §3

[3] = system: BaF3 cells stably expressing FGFR (porcine); experiment: BaF3 cell proliferation-promoting effect, porcine FGFR
Description: as §1, §2, §3

[4] = system: BaF3 cells stably expressing FGFR (human); experiment: BaF3 cell proliferation-promoting effect, human FGFR
Description: as §1, §2, §3

Substance	Evaluation result of cell proliferative properties Avian [1]	Evaluation result of cell proliferative properties Bovine [2]	Evaluation result of cell proliferative properties Porcine [3]	Evaluation result of cell proliferative properties Human [4]
343 (ACVWTFDRHAQEISQALHKVGSGSGSSGSGSSGSSACVWTFDRHAQEISQALHKV; also: cyclic peptide, ring type and places not given here) [compound 343]	B (The number of viable cells is 200 cells/well or more and less than 400 cells/well.)	A (The number of viable cells is 400 cells/well or more.)	B (The number of viable cells is 200 cells/well or more and less than 400 cells/well.)	C (The number of viable cells is 100 cells/well or more and less than 200 cells/well.)
344 (ACVWTFDRHAQEISQALHKVACVWTFDRHAQEISQALHKV; also: cyclic peptide, ring type and places not given here) [compound 344]	B (The number of viable cells is 200 cells/well or more and less than 400 cells/well.)	A (The number of viable cells is 400 cells/well or more.)	B (The number of viable cells is 200 cells/well or more and less than 400 cells/well.)	B (The number of viable cells is 200 cells/well or more and less than 400 cells/well.)
